Laboratory results published in the OPERA property sets (Mansouri et al. 2018).

Settings: for log10 BCF / log10 biotransformation half-life (days): fish

Structure (SMILES)	melting point [°C]	boiling point [°C]	also measured
CCCCCCCCCCCCCCCC(=O)OC/C=C(C)/C=C/C=C(C)/C=C/C1=C(C)CCCC1(C)C	28.5	–	–
CN(CCO)c1nc2c(c(=O)n(C)c(=O)n2C)n1C	105	–	–
CCCCCCCC/C=C\CCCCCCCC(=O)OCC	-13.1	–	–
CC1=CCCC1=O	–	157	–
CN(C)C(=O)Nc1cc(C(C)(C)C)on1	120	–	log10 Koc (L/kg): 2.47; log10 vapour pressure (mmHg): -6.42; ready biodegradability: readily biodegradable
CC[C@H](CC[C@@H](C)[C@H]1CC[C@H]2C3=CC=C4C[C@@H](O)CC[C@]4(C)[C@H]3CC[C@]12C)C(C)C	144	–	–
FC(F)(F)C1(F)C(F)(F)C(F)(F)C(F)(F)C(F)(F)C1(F)C(F)(F)F (configuration not stated)	–	–	ready biodegradability: not readily biodegradable
C[Si](C)(Cl)O[Si](C)(C)O[Si](C)(C)Cl	-53	184	–
CCOC(=O)c1ccccc1Cl	–	243	–
CCCCCCCCCCCCCC(CCCCCCCCCC)CCCCCCCCCC	10.8	–	–
COC(=O)c1cccc(N)c1	39	–	–
CC(=O)c1c[nH]c2ccccc12	192	–	–
O=C1CCOc2ccccc21	36.5	–	–
Clc1ccc(-c2ccccc2)cc1	78.8	293	log10 Henry constant (atm·m³/mol): -3.24; log10 Koa: 6.8; log10 vapour pressure (mmHg): -1.98; ready biodegradability: readily biodegradable
Cn1c(=S)sc2ccccc21	90	335	–
COC(=O)CC(C)=O	–	172	log10 vapour pressure (mmHg): -0.0496; ready biodegradability: readily biodegradable
CN(C)S(=O)N(C)C	31	209	–
Nc1ccc(-c2ccc(N)c(Cl)c2)cc1Cl	132	368	log10 Koc (L/kg): 4.35; ready biodegradability: not readily biodegradable; log10 BCF: 2.16; log10 biotransformation half-life (days): -0.13
O=Cc1ccc(F)cc1	-10	182	–
CCCCCCc1ccc(O)cc1O	68	334	–
Cc1ccccc1CO	38	224	–
CC(=O)c1ccc(F)cc1	–	196	–
COc1ccc(C(C)=O)c(O)c1	52.5	–	–
NCCS	98	–	–
c1ccc2c(c1)oc1ccccc12	86.5	287	log10 Koc (L/kg): 3.91; log10 vapour pressure (mmHg): -2.61; ready biodegradability: readily biodegradable; log10 BCF: 3.18; log10 biotransformation half-life (days): 1.35

Structure (SMILES)	melting point [°C]	boiling point [°C]	also measured
CCO[Si](CCC#N)(OCC)OCC	–	224	–
C=CC=CC(=O)O	79	–	–
CC1CCC(C)(C(=O)O)C1(C)C (configuration not stated)	106	254	–
CC(=O)Nc1ccc(CC(=O)O)cc1	173	–	–
Clc1cc(Cl)c(Oc2cc(Cl)c(Cl)cc2Cl)cc1Cl	–	–	log10 biotransformation half-life (days): 1.98
CCC(C)(C)N	-105	77	–
O=C1c2ccccc2C(=O)c2c(NCCO)ccc(NCCO)c21	248	–	–
CC(C)OC(=O)CCl	–	150	log10 vapour pressure (mmHg): 0.613
O[C@H]1[C@H](O)[C@H](O)OC[C@H]1O	158	–	–
CCCc1ccccc1	-99.5	159	log10 Henry constant (atm·m³/mol): -1.98; log10 Koa: 4.09; log10 Koc (L/kg): 2.87; log10 biodegradation half-life (days): 0.602; log10 vapour pressure (mmHg): 0.534; ready biodegradability: readily biodegradable
C=CC(C)CCCC(C)C (configuration not stated)	–	154	–
CC1(N)CCC(C(C)(C)N)CC1 (configuration not stated)	-45	–	–
COc1ccc(C=O)c(C(=O)O)c1OC	150	–	–
C#C[C@]1(O)CC[C@H]2[C@@H]3CCC4=CC(=O)CCC4=C3C=C[C@@]21C	169	–	–
CCC(=O)O[C@H]1CC[C@H]2[C@@H]3CCC4=CC(=O)CC[C@]4(C)[C@H]3CC[C@]12C	120	–	–
CO[C@H]1O[C@H](CNC(=O)N(CCCl)N=O)[C@@H](O)[C@H](O)[C@H]1O	111	–	–
CCCC(O)CCC	-41.2	156	log10 vapour pressure (mmHg): -0.0048
COc1ccccc1I	–	241	–
CCCCC(C)Br (configuration not stated)	–	144	log10 vapour pressure (mmHg): 0.86
CC1CC(C)NC(C)(C)C1 (configuration not stated)	–	156	–
BrCC(CBr)(CBr)CBr	163	306	ready biodegradability: not readily biodegradable; log10 BCF: 1.94; log10 biotransformation half-life (days): 0.76
O=C(O)c1c(F)cc(F)cc1F	143	–	–
Clc1cc2c(cc1Cl)Oc1c(cc(Cl)c(Cl)c1Cl)O2	240	–	log10 Koa: 10.6; log10 vapour pressure (mmHg): -9.36; log10 BCF: 4.26; log10 biotransformation half-life (days): 1.56
CC(C)C(OC(=O)c1cccnc1)c1ccc(Cl)cc1 (configuration not stated)	61	–	–
CN[C@@H](C)[C@@H](O)c1ccccc1	90.5	–	–

Structure (SMILES)	melting point [°C]	boiling point [°C]	also measured
C/C=C/C=C/C(=O)OC	15	180	–
C=CCOC=C	–	66	–
C=CCN=C=S	-80	152	log10 vapour pressure (mmHg): 0.568
CCC[C@H]1CCCCC1=O	–	197	–
COc1ccc([C@@H]2CC(=O)c3c(O)cc(O[C@@H]4O[C@H](CO[C@@H]5O[C@@H](C)[C@H](O)[C@@H](O)[C@H]5O)[C@@H](O)[C@H](O)[C@H]4O)cc3O2)cc1O	262	–	–
CCCCCCCCCCCCCO	32.5	–	log10 vapour pressure (mmHg): -3.36; ready biodegradability: readily biodegradable
Clc1ccc(-c2cc(Cl)c(Cl)c(Cl)c2)cc1Cl	–	–	log10 Koa: 10.3; log10 biotransformation half-life (days): 2.4
O=CC[C@@H](O)C(O)[C@H](O)CO (stereo in doubt)	146	–	–
O[C@H](CS)[C@H](O)CS	62.8	–	–
CC(C)(Cl)Br	–	95	–
c1ccc(Nc2ccccn2)nc1	90.5	308	–
Nc1ccc(Nc2ccc(N)cc2)cc1	158	–	–
O=[N+]([O-])c1ccc2c(c1)Cc1ccccc1-2	157	–	–
CCC(C)C(C)C(C)=O (configuration not stated)	–	158	–
COc1ccccc1NC(C)=O	87.5	304	–
O=C(O)C(F)(F)C(F)(F)C(F)(F)C(F)(F)C(F)(F)C(F)(F)F	–	177	log10 vapour pressure (mmHg): -0.876
O=C(Oc1cccc2cccnc12)c1ccccc1	119	–	ready biodegradability: readily biodegradable
FC1(F)C(F)(F)C(F)(F)C2(F)C(F)(F)C(F)(F)C(F)(F)C(F)(F)C2(F)C1(F)F (configuration not stated)	-10	–	–
Cn1c(=O)ccc2ccccc21	74	325	–
O=Cc1cccc([N+](=O)[O-])c1	58.5	–	log10 vapour pressure (mmHg): -2.14
OC1CCC(Cl)CC1 (configuration not stated)	82.5	–	–
CCOC(CN(CC)CC)OCC	–	194	–
Cc1cc(C)c(C)c(C)n1	–	203	–
Cc1ccc2ccccc2n1	-1.5	246	log10 vapour pressure (mmHg): -2.02
CCCCCCCC/C=C\CCCCCCCC(=O)O	–	360	log10 vapour pressure (mmHg): -5.85; ready biodegradability: readily biodegradable

Structure (SMILES)	melting point [°C]	boiling point [°C]	also measured
C/C=C/CCCCCCCC	-57.4	194	–
BrC[C@@H]1CCCO1	–	170	–
Clc1ccccc1C=C1c2ccccc2-c2ccccc21	69.5	–	–
O=C(O)C1C2CCC(O2)C1C(=O)O (configuration not stated)	144	–	log10 Koc (L/kg): 2.09; log10 vapour pressure (mmHg): -9.8
CC(=O)OCC=Cc1ccccc1	–	265	–
CCc1cccc(C)c1C	-49.5	194	log10 biodegradation half-life (days): 0.778; log10 vapour pressure (mmHg): -0.206
CCCCCCCCCCCCBr	-9.5	276	log10 vapour pressure (mmHg): -2.41
Cn1c(=O)c2c(ncn2CCO)n(C)c1=O	158	–	–
CCOC(=O)c1ccccc1N	13	268	–
Cc1cc(O)c2ccccc2c1O	169	–	–
Cc1cc(Cl)nc(Cl)n1	46.5	219	–
O=C(O)Cc1c(Cl)ccc(Cl)c1Cl	161	–	log10 Koc (L/kg): 1.8
CCc1ccccc1Cl	-82.7	178	–
C[C@H]1C[C@@H](OC(=O)c2ccccc2)CC(C)(C)N1	70.5	–	–
CC(C)=CCN=C(N)N	62.5	–	–
CCOP(=O)(N=C1SCCS1)OCC	41	–	–
O=CC=Cc1ccc([N+](=O)[O-])cc1	142	–	–
CCS	-148	35.1	log10 Henry constant (atm·m³/mol): -2.34; log10 vapour pressure (mmHg): 2.72
Nc1nc(N)c2nc(-c3ccccc3)c(N)nc2n1	316	–	–
O=[N+]([O-])c1ccccc1I	54	290	–
CC(C)N(C(=O)SCC(Cl)=CCl)C(C)C	25	–	log10 Koc (L/kg): 3.28; log10 vapour pressure (mmHg): -3.82
COc1ccc(C(C)=O)c(OC)c1OC	15.8	296	–
CC1CCC(C)C1 (configuration not stated)	–	–	log10 biodegradation half-life (days): 0.602
O=C(O)CC(S)C(=O)O (configuration not stated)	149	–	–
CC(=O)c1c(O)c(C)c(O)c2c1OC1=CC(=O)C(C(C)=O)C(=O)C12C (configuration not stated)	204	–	–

Structure (SMILES)	melting point [°C]	boiling point [°C]	also measured
O=[N+]([O-])c1cccc(F)c1	41	199	–
C1CCSCC1	19	142	log10 vapour pressure (mmHg): 0.895
Clc1cncc(Cl)c1	66	–	–
Cc1ccc(Cl)c(C)c1	-32.5	184	–
CCCCCCCCCC#N	-17.9	243	–
CC[C@H]1OC(=O)[C@H](C)C(=O)[C@H](C)[C@@H](O[C@@H]2O[C@H](C)C[C@H](N(C)C)[C@H]2O)[C@@H](C)C[C@@H](C)C(=O)C=C[C@]1(C)O	170	–	–
Oc1ccccc1C=Nc1ccccc1	49.5	–	–
CCCC(Cl)CC (configuration not stated)	–	123	–
COc1c(Cl)ccc(Cl)c1Cl	45	227	log10 Henry constant (atm·m³/mol): -3.54; log10 BCF: 2.52
CCc1ccccc1-n1c(C)nc2ccccc2c1=O	81	–	–
CC(=O)c1ccc(Br)s1	94.5	–	–
CC(=O)Nc1ccc(O)cc1	170	–	ready biodegradability: readily biodegradable
Cc1ccccn1	-66.7	129	log10 Henry constant (atm·m³/mol): -5; log10 vapour pressure (mmHg): 1.05; ready biodegradability: readily biodegradable
CC(=O)OCC#N	–	200	–
Cc1cccc2cc[nH]c12	85	266	–
CC1=C(C(=O)O)N2C(=O)[C@@H](NC(=O)[C@H](N)C3=CCC=CC3)[C@H]2SC1	140	–	–
O=[N+]([O-])C1CCCCC1	-34	205	–
CCCCCCCSCCCCCCC	–	298	–
CC(c1ccccc1)c1ccccc1O (configuration not stated)	–	–	ready biodegradability: not readily biodegradable
c1ccc(SSc2ccccc2)cc1	62	310	log10 vapour pressure (mmHg): -3.66
CN1CCN(C2=Nc3ccccc3Sc3ccc(Cl)cc32)CC1	119	–	–
CCC(C)=C(C)C(C)=O	–	158	–
